# Laboratory results as given in paper PMC7918931 (Viruses, 2021).
# What was measured:
# GST-SMURF2-WW3 = GST-SMURF2-WW3 (Homo sapiens, UniProt Q9HAU4); assay type: binding; settings: pH 7.4
# [1] = test system: ~115 known WW domains (GST-fusion proteins); assay type: binding, mammalian
# [2] = test system: SMURF2 WW domain #3 (SMURF2-3); assay type: binding
# GST-SMURF2-WW3, sequence (Q9HAU4 297-330): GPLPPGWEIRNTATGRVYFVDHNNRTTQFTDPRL
smiles,measurement,setting,value
CC[C@H](C)[C@H](NC(=O)[C@H](C)NC(=O)[C@H](CCC(=O)O)NC(=O)[C@H](CCSC)NC(=O)[C@H](Cc1ccc(O)cc1)NC(=O)[C@H](CCC(=O)O)NC(=O)[C@@H]1CCCN1C(=O)[C@@H]1CCCN1C(=O)[C@H](C)NC(=O)[C@@H](NC(=O)[C@@H]1CCCN1C(=O)[C@H](CC(C)C)NC(=O)[C@@H](NC(=O)[C@@H](NC(=O)[C@H](CCCNC(=N)N)NC(=O)[C@H](CCCNC(=N)N)NC(=O)[C@@H](N)CCSC)C(C)C)[C@@H](C)CC)[C@@H](C)O)C(=O)N[C@@H](CCCCNC(=O)CCCC[C@@H]1SC[C@@H]2NC(=O)N[C@@H]21)C(=O)O [eVP40-WT peptide],Bmax,GST-SMURF2-WW3,39 RU
same,interaction with host WW domains on array,[1],interacted with a select number of host WW domains
same,interaction with SMURF2 WW domain #3 on array,[2],positive interaction
